Assay results from patent EP4696306A1, “ADENOSINE TRIPHOSPHATE SECRETION INHIBITOR, HEPATIC STELLATE CELL ACTIVATION INHIBITOR, HEPATIC STELLATE CELL DEACTIVATOR, HEPATIC FIBROSIS THERAPEUTIC AGENT, NON-ALCOHOLIC STEATOHEPATITIS THERAPEUTIC AGENT, PSORIASIS THERAPEUTIC AGENT, AND USE OF COMPOUND FOR PRODUCING ADENOSINE TRIPHOSPHATE …” (KURUME UNIVERSITY, priority 2023, dated 2024).

How the values were obtained:
[1] = test system: human epidermal keratinocytes; assay: ATP secretion promoted by ionomycin in keratinocytes; format: cell-based
Description: Human epidermal keratinocytes (Cryopreserved HEK, Lot 1758, Cell Applications Inc.) were cultured using an Epivita Keratinocyte Growth Medium Kit according to the manufacturer's instructions. The procedure was as follows. A supplement medium was added to a hydrocortisone-containing basal medium included in the medium preparation kit to prepare a complete medium. The medium in the dish was removed by aspiration. The cells were washed with 5 ml of BSS (Gbco), and then the BSS was removed by aspiration. After addition of 5 to 6 ml of trypsin/EDTA solution (Gbco), the dish was incubated at 37°C for 2 minutes. After addition of 5 ml of trypsin neutralization solution, the resulting cell suspension was transferred into two 15-ml Falcon tubes, and centrifuged at 200 × g for 5 minutes. The supernatant was removed by aspiration, and the pelleted cell cluster was suspended in 2 ml of the medium at 4.5 × 10^5 cells/ml. An aliquot of the resulting cell suspension was cryopreserved, while another aliquot was cultured and subjected to measurement.
ATP secretion by human epidermal keratinocytes (hereinafter referred to as "keratinocytes") was measured. Regarding control solutions, Krebs-Ringer HEPES supplemented with 0.2% BSA and 25 mM glucose (hereinafter also referred to as "Krebs/Iono(-)") was used as a negative control, and a solution prepared by adding 5 µM ionomycin to this solution (hereinafter also referred to as "Krebs/Iono(+)") was used as a positive control for ATP secretion. Ionomycin is a Ca^2+ ionophore. Addition of ionomycin to cells is known to promote influx of extracellular Ca^2+ into the cells to increase the intracellular Ca^2+ concentration, resulting in enhancement of ATP secretion. Test solutions were prepared by adding clodronate to Krebs/Iono(-) or Krebs/Iono(+) to a final concentration of 0.1 µM (hereinafter also referred to as "Clo/Iono(-)" or "Clo/Iono(+)", respectively) (N = 3).
Keratinocytes were cultured at 2.5 × 10^4 cells/well in a 24-well plate at 37°C in 5% CO2 for 4 days. The medium was removed by aspiration, replaced with Krebs/Iono(-) or Clo/Iono(-), and incubated at 37°C for 6 hours. These solutions were then removed by aspiration, and the content of each well incubated with Krebs/Iono(-) was replaced with 300 µl of a control solution (Krebs/Iono(-) or Krebs/Iono(+)), while the content of each well incubated with Clo/Iono(-) was replaced with 300 µl of a test solution (Clo/Iono(-) or Clo/Iono(+)). After further incubation at 37°C for 20 minutes, 200 µl of the supernatant was collected. The collected supernatant was immediately treated on a heat block at 95°C for 10 minutes, to inactivate ectonucleotidase. ATP in the supernatant was quantified using a Dojindo ATP assay kit - Luminescence (manufactured by Dojindo Laboratories).
After culturing keratinocytes, the medium was removed by aspiration, and replaced with Krebs/Iono(-), or Krebs/Iono(-) supplemented with 10 µM imeglimin, 0.1 µM EPA, 1 µM EPA, or 10 µM clodronate, followed by incubation for 6 hours. Subsequently, the solution was replaced with either a control solution (Krebs/Iono(-) or Krebs/Iono(+)) or a test solution (Krebs/Iono(+) supplemented with 10 µM imeglimin, 0.1 µM EPA, 1 µM EPA, or 10 µM clodronate), followed by incubation at 37°C for 20 minutes and then collection of 200 µl of the supernatant. The collected supernatant was immediately treated on a heat block at 95°C for 10 minutes to inactivate ectonucleotidase. ATP in the supernatant was quantified using a Dojindo ATP assay kit - Luminescence (manufactured by Dojindo Laboratories).
Keratinocytes were cultured in the same manner as in Example 1, and the medium was replaced with Krebs/Iono(-), Krebs/Iono(-) supplemented with 0.1 µM, 1 µM, or 10 µM imeglimin, or Krebs/Iono(-) supplemented with 0.1 µM, 1 µM, or 10 µM metformin, followed by incubation for 6 hours. […]

[2] = test system: human epidermal keratinocytes; assay: LPS-stimulated ATP secretion in keratinocytes; format: cell-based; conditions: 18 hours incubation, LPS 10 µg/ml 10 minutes, N = 8
Description: Keratinocytes were cultured in the same manner as in Example 1. Keratinocytes were cultured at 2.5 × 10^4 cells/well in a 24-well plate at 37°C in 5% CO2 for 4 days. The medium was replaced with a test solution (Hanks' balanced salt solution (HBSS) (manufactured by Gibco) supplemented with imeglimin, metformin, or clodronate), and then incubation was performed at 37°C in 5% CO2 for 18 hours. Thereafter, LPS (10 µg/ml) was added thereto, and incubation was further carried out for 10 minutes, followed by collection of 200 µl of the supernatant. The supernatant was immediately treated on a heat block at 95°C for 10 minutes, and ATP in the supernatant was quantified using an ATP Assay Kit - Luminescence (manufactured by Dojindo) (N = 8).

[3] = 10 µM, 6 hours incubation, then 20 minutes with ionomycin, N = 4

## C=C(OP(=O)(O)O)C(=O)O [PEP, phosphoenolpyruvic acid]
[1]; 5 mM PEP, 20 minutes, N = 4
  ATP secretion promoted by ionomycin: inhibited
[1]; 10 mM PEP, 20 minutes, N = 4
  ATP secretion promoted by ionomycin: inhibited
[1]; data not shown
  concentration exhibiting a relatively strong ATP secretion inhibitory effect: not less than 3 mM

## O=P(O)(O)C(Cl)(Cl)P(=O)(O)O [clodronate]
[1]; 0.1 µM clodronate, 6 hours incubation, then 20 minutes with 5 µM ionomycin, N = 3
  ATP secretion promoted by ionomycin: inhibits the ATP secretion promoted by ionomycin
[1]; [3]
  ATP secretion promoted by ionomycin: inhibited
[2]; 10 µM
  ATP secretion upon LPS stimulation: almost completely inhibited

## C[C@H]1N=C(N(C)C)N=C(N)N1 [imeglimin]
[1]; 0.1 µM, 1 µM, 10 µM, 6 hours incubation, N = 3
  ATP secretion inhibitory effect, comparison and concentration dependence: slightly higher ATP secretion inhibitory effect than metformin
[1]; 0.1 µM, 6 hours incubation, N = 3
  ATP secretion inhibitory effect: exhibit an ATP secretion inhibitory effect
[1]; 1 µM imeglimin
  time required for production of a strong inhibitory effect: about 6 hours
[1]; 1 µM imeglimin, incubation time 2 hours, N = 3
  ATP secretion level relative to that obtained using the control solution: about 85%
[1]; 1 µM imeglimin, incubation time 6 hours, N = 3
  ATP secretion level relative to that obtained using the control solution: about 40%
[1]; 10 µM imeglimin versus 1 µM EPA and 10 µM clodronate
  ATP secretion inhibitory effect compared with reference inhibitors: comparable to those of 1 µM EPA and 10 µM clodronate
[1]; [3]
  ATP secretion promoted by ionomycin: inhibited
[2]; 1 µM
  ATP secretion upon LPS stimulation: almost completely inhibited
[2]; 10 µM
  ATP secretion upon LPS stimulation: almost completely inhibited
